According to patent publication US4722927A, “Pyrimidine amides of oleic or linoleic acid, composition containing them and their use as inhibitors of acyl-CoA cholesterol acyltransferase” (Warner-Lambert Company, priority 1986, dated 1988):

Target: T1, acyl-CoA:cholesterol acyltransferase (ACAT) (Oryctolagus cuniculus, UniProt G1SFD9)
T1 construct: a tissue preparation containing rabbit intestinal microsomes; from tissue; host or cells: rabbit intestinal microsomes
T1 sequence (G1SFD9 1-524): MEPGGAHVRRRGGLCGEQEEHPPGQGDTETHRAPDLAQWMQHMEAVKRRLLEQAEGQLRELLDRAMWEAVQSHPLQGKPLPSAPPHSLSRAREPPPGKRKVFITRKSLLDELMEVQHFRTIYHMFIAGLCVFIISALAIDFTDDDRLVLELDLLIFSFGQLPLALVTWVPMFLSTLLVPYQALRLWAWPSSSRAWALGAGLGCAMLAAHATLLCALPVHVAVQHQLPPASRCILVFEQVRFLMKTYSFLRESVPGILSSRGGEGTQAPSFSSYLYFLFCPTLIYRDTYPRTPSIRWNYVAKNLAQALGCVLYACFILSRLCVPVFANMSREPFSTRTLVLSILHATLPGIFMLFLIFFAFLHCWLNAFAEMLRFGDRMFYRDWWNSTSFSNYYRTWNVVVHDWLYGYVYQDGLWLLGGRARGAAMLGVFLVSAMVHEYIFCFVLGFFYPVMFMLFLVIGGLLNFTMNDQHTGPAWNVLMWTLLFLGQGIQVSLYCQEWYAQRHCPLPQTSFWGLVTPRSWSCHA
Assay: In vitro inhibition of ACAT: radio-labeled cholesterol oleate formed from radio-labeled oleic acid in rabbit intestinal microsomes
Type: biochemical
Experimental: The ability of representative compounds of the present invention to inhibit ACAT was measured using an in vitro test more fully described in Field, F. J. and Salone, R. G., Biochemica et Biophysica 712: 557-570 (1982). The test assesses the ability of a test compound to inhibit the acylation of cholesterol by oleic acid by measuring the amount of radio-labeled cholesterol oleate formed from radio-labeled oleic acid in a tissue preparation containing rabbit intestinal microsomes.
The data appear in Table 1 where they are expressed as IC50 values; i.e. the concentration of test compound required to inhibit 50% […] of the enzyme.

Row | IC50 | Structure (SMILES)
1 | 0.2 µM | CCCCCCCC/C=C\CCCCCCCC(=O)Nc1c(OC)ncnc1OC [(Z)-N-(4,6-dimethoxy-5-pyrimidinyl)-9-octadecenamide]
2 | 0.53 µM | CCCCCCCC/C=C\CCCCCCCC(=O)Nc1c(OCC)ncnc1OCC [(Z)-N-(4,6-diethoxy-5-pyrimidinyl)-9-octadecenamide]
